Results reported in article PMC3681500, “Development of an orally-administrative MELK-targeting inhibitor that suppresses the growth of various types of human cancer” (Oncotarget, 2012).

Target: MELK (maternal embryonic leucine zipper kinase) (Homo sapiens, UniProt Q14680)
Assay: IMAP kinase assay, high-throughput screen followed by dose-response
Assay type: biochemical

Sequence of MELK (maternal embryonic leucine zipper kinase) (Q14680 whole entry): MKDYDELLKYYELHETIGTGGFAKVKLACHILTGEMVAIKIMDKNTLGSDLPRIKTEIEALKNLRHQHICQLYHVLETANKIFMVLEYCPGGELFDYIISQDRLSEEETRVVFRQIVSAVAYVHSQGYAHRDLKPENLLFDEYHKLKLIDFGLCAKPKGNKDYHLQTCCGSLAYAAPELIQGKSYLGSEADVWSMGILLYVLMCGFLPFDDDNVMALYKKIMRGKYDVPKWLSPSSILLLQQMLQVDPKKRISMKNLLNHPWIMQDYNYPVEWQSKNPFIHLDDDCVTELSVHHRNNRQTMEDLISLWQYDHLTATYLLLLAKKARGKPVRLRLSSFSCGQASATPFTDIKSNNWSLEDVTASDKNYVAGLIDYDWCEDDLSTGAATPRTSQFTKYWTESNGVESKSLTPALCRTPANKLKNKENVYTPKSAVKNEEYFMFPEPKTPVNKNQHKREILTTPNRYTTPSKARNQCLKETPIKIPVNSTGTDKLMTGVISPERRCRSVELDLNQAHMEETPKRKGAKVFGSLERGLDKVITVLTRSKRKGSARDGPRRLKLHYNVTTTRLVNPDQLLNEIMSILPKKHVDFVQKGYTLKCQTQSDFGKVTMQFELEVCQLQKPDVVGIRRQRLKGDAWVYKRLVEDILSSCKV

- IC50: 4.8 µM
SMILES: CCOC(=O)c1ccc2ncc(C(=O)OCC)c(Nc3ccc(NC(C)=O)cc3)c2c1 [compound 1, diethyl 4-(4-acetamidophenylamino) quinoline-3,6-dicarboxylate]
